# Results reported in PMC11961695 (Annals of oncology : official journal of the European …, 2022).
# Entries after “also recorded” stand apart in the source; their conditions may differ. Read-outs that look alike come from different tables or passages of the source.
# Tests used:
# [1] = FIGHT-101 safety and tolerability
# [2] = FIGHT-101 clinical pharmacokinetics
# serum phosphate = experiment: Serum phosphate pharmacodynamics and Emax exposure-response model; settings: in vivo
# [3] = system: locally advanced or metastatic cholangiocarcinoma; settings: cited from earlier work
# [4] = system: refractory advanced malignancies with and without FGF/FGFR alterations; experiment: FIGHT-101 tumor response per investigator
# [5] = all treated patients, any grade
# [6] = FIGHT-202, FGFR2 fusions or rearrangements
# [7] = cholangiocarcinoma with FGFR2 fusions or rearrangements (13 patients)
structure (smiles),measurement,setting,value
CCN1C(=O)N(c2c(F)c(OC)cc(OC)c2F)Cc2cnc3[nH]c(CN4CCOCC4)cc3c21 [pemigatinib],Dose-limiting toxicities,"[1]; 1–20 mg QD, ID or CD, cycle 1",No dose-limiting toxicities were reported; also recorded: No DLTs were reported in any dose cohort; also recorded: No DLTs were encountered
same,Clinically notable TEAEs,[1]; CD,86.2%
same,Dose interruptions due to TEAEs,[1]; CD,74.1%
same,Dose reductions due to TEAEs,[1]; CD,17.2%
same,"Fatigue, grade ≥3 TEAE",[1]; CD,15.5%
same,Grade ≥3 TEAEs,[1]; CD,75.9%
same,Grade ≥3 hyponatremia,[1]; CD,10.3%
same,Grade ≥3 stomatitis,[1]; CD,17.2%
same,"Hyperphosphatemia, any-cause TEAE",[1]; CD,82.8%
same,Hypophosphatemia events,[1]; CD,12.1%
same,Treatment discontinuations due to TEAEs,[1]; CD,12.1%
same,Clinically notable TEAEs,[1]; ID,77.1%
same,Dose interruptions due to TEAEs,[1]; ID,32.9%
same,Dose reductions due to TEAEs,[1]; ID,5.7%
same,"Fatigue, grade ≥3 TEAE",[1]; ID,5.7%
same,Grade ≥3 TEAEs,[1]; ID,50.0%
same,Grade ≥3 hyponatremia,[1]; ID,7.1%
same,Grade ≥3 stomatitis,[1]; ID,1.4%
same,"Hyperphosphatemia, any-cause TEAE",[1]; ID,68.6%
same,Hypophosphatemia events,[1]; ID,18.6%
same,Treatment discontinuations due to TEAEs,[1]; ID,8.6%
same,TEAEs of dry eye,[1]; all patients,23.4%
same,TEAEs of eyelash changes,[1]; all patients,13.3%
same,TEAEs of serous retinal detachment,[1]; all patients,no TEAEs of serous retinal detachment; also recorded: no serous retinal detachment events were reported
same,TEAEs of vision blurred,[1]; all patients,16.4%
same,TEAEs of vitreous detachment,[1]; all patients,1.6%
same,Clinically notable TEAEs,[1]; all treated patients,81.3%
same,Dose interruption due to hypophosphatemia,[1]; all treated patients,1.6%
same,Dose interruption due to nail toxicities,[1]; all treated patients,7.8%
same,Dose interruption for hyperphosphatemia,[1]; all treated patients,9.4%
same,Dose reduction due to nail toxicities,[1]; all treated patients,0.8%
same,Dose reduction for hyperphosphatemia,[1]; all treated patients,1.6%
same,Dose reductions due to hypophosphatemia,[1]; all treated patients,none required dose reductions
same,"Fatigue, grade ≥3 TEAE",[1]; all treated patients,10.2%
same,Hyperphosphatemia requiring dose interruption,[1]; all treated patients,12 n
same,"Hyperphosphatemia, grade ≥3",[1]; all treated patients,2.3%
same,Nail discoloration,[1]; all treated patients,13.3%
same,Onycholysis,[1]; all treated patients,14.8%
same,Paronychia,[1]; all treated patients,10.2%
same,Patients with TEAE-related treatment discontinuation,[1]; all treated patients,10.2%
same,Patients with a TEAE,[1]; all treated patients,99.2%
same,Patients with dose interruption due to TEAEs,[1]; all treated patients,51.6%
same,Patients with dose reduction due to TEAEs,[1]; all treated patients,10.9%
same,Treatment-related TEAE,[1]; all treated patients,90.6%
same,"Hyperphosphatemia, any-cause TEAE","[1]; all treated patients (N = 128), any grade",75%
same,Stomatitis requiring dose reduction,[1]; all treated patients (all CD),4 n
same,Pneumonia requiring discontinuation,[1]; all treated patients (both ID),2 n
same,Small intestinal obstruction requiring discontinuation,[1]; all treated patients (both ID),2 n
same,"Hyperphosphatemia, treatment-related TEAE",[1]; [5],73.4%
same,Hypophosphatemia events,[1]; [5],15.6%
same,Nail toxicities,[1]; [5],32.0%
same,"Hyperphosphatemia, treatment-related TEAE","[1]; all treated patients, grade ≥3",1.6%
same,Hypophosphatemia events,"[1]; all treated patients, grade ≥3",5.5%
same,Nail toxicities,"[1]; all treated patients, grade ≥3",3.1%
same,Treatment discontinuations resulting from clinically notable TEAEs,"[1]; grade 3 paronychia (20 mg CD), grade 2 trichiasis (13.5 mg CD)",two
same,Permanent treatment discontinuation due to hyperphosphatemia,[1]; in vivo,None of the hyperphosphatemia events resulted in permanent treatment discontinuation
same,Relation of deaths due to TEAEs to treatment,[1]; in vivo,None of these deaths were considered treatment-related
same,Maximum tolerated dose,"[1]; monotherapy, 1–20 mg QD",not reached
same,"Increase in average per-cycle exposure, CD versus ID regimen",[2]; 13.5 mg QD,50%
same,Dose proportionality of steady-state Cmax and AUC0–24,[2]; 1–20 mg QD,dose-proportional increases
same,Effect of a high-fat and high-calorie meal on pharmacokinetics,"[2]; human, in vivo",modest effects on pemigatinib pharmacokinetics that were not considered clinically meaningful
same,half-life,"[2]; human, in vivo, Steady-state geometric mean terminal-phase disposition half-life, doses ≥6 mg QD",12.1 to 15.4 h
same,Pharmacologically active doses,serum phosphate,≥ 4 mg
same,Disease control rate,[3]; [6],82%
same,Estimated median OS,[3]; [6],17.5 months
same,ORR,[3]; [6],35.5%
same,Disease control rate,"[3]; FIGHT-202, no FGF/FGFR alterations",22%
same,Disease control rate,"[3]; FIGHT-202, other FGF/FGFR alterations",40%
same,Stable disease,[4]; FGF amplification,20%
same,Stable disease,[4]; FGFR amplification,26.9%
same,Stable disease,[4]; FGFR fusions or rearrangements,50%
same,Median PFS,[4]; FGFR fusions or rearrangements (n = 20),5.7 months
same,Stable disease,[4]; FGFR mutations,23.1%
same,Median PFS,[4]; FGFR mutations (n = 13),5.0 months
same,"Time to disease progression, individual patient","[4]; adenoid cystic carcinoma of the head and neck, 9 mg QD (CD)",20.5 months
same,"Time on treatment to PR, individual patient","[4]; adenoid cystic carcinoma of the head and neck, 9 mg QD (CD), no FGF/FGFR alterations",6.0 months
same,Disease progression,[4]; all patients (N = 128),38.3%
same,Median PFS,[4]; all patients (N = 128),2.8 months
same,Partial response,[4]; all patients (N = 128),9.4%
same,"Partial responses achieved, number",[4]; all patients (N = 128),12
same,Stable disease,[4]; all patients (N = 128),31.3%
same,Median duration of response,[4]; all responders (n = 12),7.3 months
same,Partial response,[4]; [7],23.1%
same,Stable disease,[4]; [7],61.5%
same,"Duration of response, individual patient","[4]; cholangiocarcinoma, FGFR2-CCDC6 fusion",11.3 months
same,"Time on treatment to PR, individual patient","[4]; non-small-cell lung cancer, 9 mg QD (CD), FGF/FGFR status unknown",6.2 months
same,"Duration of response, individual patient","[4]; non-small-cell lung cancer, 9 mg QD (CD), ongoing at database lock",29.9 months
same,"Duration of response, individual patient","[4]; pancreatic cancer, FGFR2-USP33 fusion",10.7 months
same,Stable disease,[4]; patients with FGF/FGFR alterations,30.4%
same,ORR,[4]; patients with FGFR fusions or rearrangements,25.0%
same,ORR,[4]; patients with FGFR mutations,23.1%
same,Best median percentage change in target lesion size,[4]; patients with SD and FGF/FGFR alterations (n = 24),−8.0%
same,Median PFS,[4]; positive for FGF/FGFR alterations (n = 79),3.0 months
